Measured values published in ChEMBL document CHEMBL1667725, “Tuberatolides, potent FXR antagonists from the Korean marine tunicate Botryllus tuberatus” (J Nat Prod, 2011).
Activity calls are given as the source filed them.

Assays:
[1] = biological target: T1, Androgen receptor (Homo sapiens) (UniProt P10275); assay: Effect on human Gal4-fused AR at 10 uM by luciferase reporter gene assay
T1 sequence (whole entry): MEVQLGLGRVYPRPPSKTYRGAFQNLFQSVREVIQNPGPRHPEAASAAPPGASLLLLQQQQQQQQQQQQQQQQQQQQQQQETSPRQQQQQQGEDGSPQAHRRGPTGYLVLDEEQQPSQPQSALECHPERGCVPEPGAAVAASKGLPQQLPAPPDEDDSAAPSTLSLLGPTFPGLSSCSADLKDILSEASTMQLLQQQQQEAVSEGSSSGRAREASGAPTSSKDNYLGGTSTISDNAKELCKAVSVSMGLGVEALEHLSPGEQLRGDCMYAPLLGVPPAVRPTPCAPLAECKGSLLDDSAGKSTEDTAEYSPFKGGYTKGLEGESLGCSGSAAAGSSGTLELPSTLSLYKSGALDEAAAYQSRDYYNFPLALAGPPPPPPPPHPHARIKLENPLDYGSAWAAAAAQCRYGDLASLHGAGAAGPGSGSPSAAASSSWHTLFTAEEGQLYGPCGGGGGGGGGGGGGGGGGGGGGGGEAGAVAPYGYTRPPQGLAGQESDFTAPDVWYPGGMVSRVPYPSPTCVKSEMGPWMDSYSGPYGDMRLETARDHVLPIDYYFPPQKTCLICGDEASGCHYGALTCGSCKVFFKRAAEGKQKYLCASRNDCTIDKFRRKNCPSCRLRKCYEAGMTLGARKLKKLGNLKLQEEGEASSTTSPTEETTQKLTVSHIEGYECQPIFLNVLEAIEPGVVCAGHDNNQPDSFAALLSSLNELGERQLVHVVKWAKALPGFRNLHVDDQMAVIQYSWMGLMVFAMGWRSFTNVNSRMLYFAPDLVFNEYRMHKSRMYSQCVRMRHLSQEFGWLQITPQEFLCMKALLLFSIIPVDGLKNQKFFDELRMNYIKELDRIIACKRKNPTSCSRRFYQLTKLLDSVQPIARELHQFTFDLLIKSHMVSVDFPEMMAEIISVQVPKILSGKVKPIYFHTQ

[2] = biological target: T2, Progesterone receptor (Homo sapiens) (UniProt P06401); assay: Effect on human Gal4-fused PR at 10 uM by luciferase reporter gene assay
T2 sequence (whole entry): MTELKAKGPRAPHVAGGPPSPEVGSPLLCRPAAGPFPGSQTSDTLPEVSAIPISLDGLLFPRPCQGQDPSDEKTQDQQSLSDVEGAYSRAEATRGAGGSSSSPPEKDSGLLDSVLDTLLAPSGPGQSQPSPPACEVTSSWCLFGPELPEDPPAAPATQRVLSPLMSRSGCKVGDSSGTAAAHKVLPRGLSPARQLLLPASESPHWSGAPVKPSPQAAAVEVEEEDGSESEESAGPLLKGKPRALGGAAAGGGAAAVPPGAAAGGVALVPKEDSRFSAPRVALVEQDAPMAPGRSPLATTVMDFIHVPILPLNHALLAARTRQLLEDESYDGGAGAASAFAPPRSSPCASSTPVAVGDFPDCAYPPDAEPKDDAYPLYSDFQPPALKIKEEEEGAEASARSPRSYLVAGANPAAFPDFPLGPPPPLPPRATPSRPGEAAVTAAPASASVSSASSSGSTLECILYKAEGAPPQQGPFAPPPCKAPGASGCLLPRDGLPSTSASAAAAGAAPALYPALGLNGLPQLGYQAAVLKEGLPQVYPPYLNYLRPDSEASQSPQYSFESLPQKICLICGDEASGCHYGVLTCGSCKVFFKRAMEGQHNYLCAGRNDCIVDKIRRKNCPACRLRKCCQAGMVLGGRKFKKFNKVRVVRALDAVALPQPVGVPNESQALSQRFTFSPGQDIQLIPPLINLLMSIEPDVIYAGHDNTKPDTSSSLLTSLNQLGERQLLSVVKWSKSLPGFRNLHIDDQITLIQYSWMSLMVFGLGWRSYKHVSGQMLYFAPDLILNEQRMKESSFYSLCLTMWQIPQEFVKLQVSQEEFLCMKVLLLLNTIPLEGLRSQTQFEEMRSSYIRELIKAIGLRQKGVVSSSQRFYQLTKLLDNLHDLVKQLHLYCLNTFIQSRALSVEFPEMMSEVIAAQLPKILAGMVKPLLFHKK

[3] = biological target: T3, Mineralocorticoid receptor (Homo sapiens) (UniProt P08235); assay: Effect on human Gal4-fused MCR at 10 uM by luciferase reporter gene assay
T3 sequence (whole entry): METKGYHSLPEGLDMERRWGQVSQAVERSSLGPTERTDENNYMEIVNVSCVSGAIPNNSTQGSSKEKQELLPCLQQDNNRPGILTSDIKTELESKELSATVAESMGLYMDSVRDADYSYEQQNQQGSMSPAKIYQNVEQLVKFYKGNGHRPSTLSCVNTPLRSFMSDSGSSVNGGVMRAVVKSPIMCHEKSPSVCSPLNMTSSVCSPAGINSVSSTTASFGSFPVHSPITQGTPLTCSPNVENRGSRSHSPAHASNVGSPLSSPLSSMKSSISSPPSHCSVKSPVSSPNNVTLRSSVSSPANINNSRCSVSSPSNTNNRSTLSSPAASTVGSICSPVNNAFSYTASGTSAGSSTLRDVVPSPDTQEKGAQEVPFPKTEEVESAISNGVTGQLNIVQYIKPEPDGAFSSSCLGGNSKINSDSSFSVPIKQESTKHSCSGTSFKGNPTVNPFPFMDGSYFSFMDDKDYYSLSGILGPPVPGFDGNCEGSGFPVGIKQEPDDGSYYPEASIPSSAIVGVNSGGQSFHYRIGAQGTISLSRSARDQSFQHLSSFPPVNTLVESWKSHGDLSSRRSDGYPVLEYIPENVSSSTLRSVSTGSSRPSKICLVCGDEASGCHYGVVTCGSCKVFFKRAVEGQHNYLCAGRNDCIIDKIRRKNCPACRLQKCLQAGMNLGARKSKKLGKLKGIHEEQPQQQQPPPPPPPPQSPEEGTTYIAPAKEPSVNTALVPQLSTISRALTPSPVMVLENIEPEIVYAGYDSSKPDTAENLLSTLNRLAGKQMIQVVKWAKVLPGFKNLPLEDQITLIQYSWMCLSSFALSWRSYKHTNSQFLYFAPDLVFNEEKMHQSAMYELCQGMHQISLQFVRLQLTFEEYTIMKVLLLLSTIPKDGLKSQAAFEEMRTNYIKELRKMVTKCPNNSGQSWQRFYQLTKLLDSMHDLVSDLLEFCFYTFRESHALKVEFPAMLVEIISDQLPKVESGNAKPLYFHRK

Measured: Activity

CC(C)=CCCC1=C[C@@H](C/C(C)=C/CC[C@]2(C)C=Cc3cc(O)cc(C)c3O2)OC1=O [2'-EPI-TUBERATOLIDE B]
inactive: [1] | [2] | [3]

CC(C)=CCCC1=C[C@@H](C/C(C)=C/CC/C(C)=C/CC2=CC(=O)C=C(C)C2=O)OC1=O [YEZOQUINOLIDE]
inactive: [1] | [2] | [3]

CC(C)=CCC/C(=C/CC/C(C)=C/CC[C@@]1(C)C=Cc2cc(O)cc(C)c2O1)C(=O)O [(S)-SARGACHROMENOL]
inactive: [1] | [2] | [3]

CC(=O)CC/C=C(\C)C[C@@H]1C=C(CCC=C(C)C)C(=O)O1 [TUBERATOLIDE A]
inactive: [1] | [2] | [3]

CC(C)=CCCC1=C[C@@H](C/C(C)=C/CC[C@@]2(C)C=Cc3cc(O)cc(C)c3O2)OC1=O [TUBERATOLIDE B]
inactive: [1] | [2] | [3]

CC(C)=CCC/C(=C/CC/C(C)=C/CC[C@]1(C)C=Cc2cc(O)cc(C)c2O1)C(=O)O [(R)-SARGACHROMENOL]
inactive: [1] | [2] | [3]
